Assay results published in patent US10537521B2 (priority 2016, dated 2020).
Where a name gives a salt, the structure may show the parent alone. Read-outs that look alike come from different tables or passages of the source.

Columns and labels:
[1] = after oral administration; cited from earlier work
rats and dogs = conditions: repeat-dose toxicity; cited from earlier work
[2] = standard in vitro and in vivo studies; cited from earlier work
[3] = cited from earlier work
[4] = test system: patients undergoing abdominal surgery; conditions: cited from earlier work
[5] = tramadol single […] [100 mg] p.o., humans N=12 male; cited from earlier work
[6] = loading doses up to 150 mg IV, postoperative; cited from earlier work
mice and rats = conditions: cited from earlier work
[7] = test system: experienced opioid abusers; conditions: cited from earlier work
[8] = Example 1: multiple-dose randomized 3-way crossover PK study of two IV tramadol regimens vs 100 mg oral q6h; conditions: for theoretical accumulation factor: 1/[1-exp(−ln 2*tau/T1/2)], T1/2 approximately […]
Experimental: A fitted curve was obtained because the second oral peak was not measured in the study. For the modeling portion of the analysis, a validated Phoenix® WinNonlin® program version 6.4 (Certara) was used for PK analysis, simulation, graphics, tables and statistical calculations. […] For purposes of nonlinear regression, the data were weighted as 1/observed. Predicted concentration-time data were calculated based on the individual fitted PK parameters.

SMILES: COc1cccc([C@]2(O)CCCC[C@H]2CN(C)C)c1 (racemic) [Tramadol, (±)cis-2-[(dimethylamino)methyl]-1-(3-methoxyphenyl) cyclohexanol hydrochloride]
- fertility or teratogenic effects [1]: no safety concerns
- doses with behavioral/clinical signs and convulsions (rats and dogs): > 25 mg/kg/day
- genotoxic potential [2]: no evidence of genotoxic potential
- absolute bioavailability ([3]; oral, continuous dosing (Liao et al., 1992)): 90-100%
- increase of elimination half-life ([3]; subjects with renal or hepatic impairment): approximately 2 fold
- patients reporting adverse events ([4]; both groups (infusion and bolus)): 25%
- effects on blood pressure or heart rate ([4]; infusion and bolus groups): no significant effects
- AUC [5]: 2177 ± 722 ng·h/mL
- Cmax [5]: 274 ± 75 ng/mL
- Tmax [5]: 1.6 ± 0.5 h
- t1/2 [5]: 5.9 ± 0.7 h
- serious adverse effects [6]: not associated with any serious adverse effects
- carcinogenic potential (mice and rats): no evidence of carcinogenic potential
- seizure ([7]; 200 mg IV administered over 5 minutes): No seizures were observed
- seizure ([7]; 300 mg IV delivered over 2.5 minutes): seizure was observed
- seizure ([7]; 700 mg IV administered over 1 minute): seizure was observed
- ratings of “liking” ([7]; tramadol 100 and 200 mg IV, morphine 10 and 20 mg IV, over 5 minutes, 10 experienced opioid abusers): neither dose of tramadol increased ratings
- ratings of “feel drug effect” compared to placebo ([7]; tramadol 100 and 200 mg IV, morphine 10 and 20 mg IV, over 5 minutes): significantly increased
- ratings on the ARCI-MBG scale ([7]; tramadol 100 and 200 mg IV, morphine 20 mg IV): neither dose of tramadol increased ratings
- predicted exposure over 12 h at steady state ([8]; 50 mg IV q4h, 3 x AUCtau n): 6684 ng·h/mL
- RAC(trough) ([8]; 50 mg IV regimen (h 0, 2, 4, then q4h to h 44), mean): 2.1937
- Css ([8]; 50 mg IV regimen (h 0, 2, 4, then q4h to h 44), plasma, mean): 557 ng/mL
- predicted exposure over 12 h at steady state ([8]; 75 mg IV q6h, 2 x AUCtau n): 6072 ng·h/mL
- RAC(trough) ([8]; 75 mg IV regimen (h 0, 3, 6, then q6h to h 42), mean): 1.5026
- Css ([8]; 75 mg IV regimen (h 0, 3, 6, then q6h to h 42), plasma, mean): 506 ng/mL
- AUC24-48 ([8]; 75 mg IV regimen (h 0, 3, 6, then q6h to h 42), plasma, mean, hydrochloride): 9402 ng·h/mL
- predicted exposure over 12 h at steady state ([8]; 100 mg PO q6h, 2 x AUCtau n): 6950 ng·h/mL
- RAC(trough) ([8]; 100 mg oral q6h to h 42, mean): 2.5580
- Css ([8]; 100 mg oral q6h to h 42, plasma, mean): 579 ng/mL
- theoretical accumulation factor ([8]; 4-h dosing interval): 2.42
- theoretical accumulation factor ([8]; 6-h dosing interval): 1.82
- AUC(0-t) ([8]; human, plasma, iv, 50 mg, AUC0-24, 50 mg IV regimen (h 0, 2, 4, then q4h to h 44), plasma, mean): 9520 ng·h/mL
- AUC(0-t) ([8]; human, plasma, iv, 50 mg, AUC0-48, 50 mg IV regimen (h 0, 2, 4, then q4h to h 44), plasma, mean): 20500 ng·h/mL
- AUC ([8]; human, plasma, iv, 50 mg, AUC24-48, 50 mg IV regimen (h 0, 2, 4, then q4h to h 44), plasma, mean): 11000 ng·h/mL
- AUC ([8]; human, plasma, iv, 50 mg, AUCtau 1, 50 mg IV regimen (h 0, 2, 4, then q4h to h 44), first dosing interval, mean): 624 ng·h/mL
- AUC ([8]; human, plasma, iv, 50 mg, AUCtau n, 50 mg IV regimen (h 0, 2, 4, then q4h to h 44), last dosing interval, mean): 2230 ng·h/mL
- concentration at 2 h ([8]; human, plasma, iv, 50 mg, C2, 50 mg IV regimen (h 0, 2, 4, then q4h to h 44), plasma, mean): 203 ng/mL
- concentration at 48 h ([8]; human, plasma, iv, 50 mg, C48 (T48), 50 mg IV regimen (h 0, 2, 4, then q4h to h 44), plasma, mean): 448 ng/mL
- concentration at 1 h ([8]; human, plasma, iv, 50 mg, C1 h, 50 mg IV regimen (h 0, 2, 4, then q4h to h 44), plasma, mean): 243 ng/mL
- Cmax ([8]; human, plasma, iv, 50 mg, Cmax(0-2), 50 mg IV regimen (h 0, 2, 4, then q4h to h 44), first dose, plasma, mean): 294 ng/mL
- Cmax ([8]; human, plasma, iv, 50 mg, Cmax(2-4), 50 mg IV regimen (h 0, 2, 4, then q4h to h 44), plasma, mean): 479 ng/mL
- Cmax ([8]; human, plasma, iv, 50 mg, Cmax(44-48), 50 mg IV regimen (h 0, 2, 4, then q4h to h 44), steady-state, plasma, mean): 711 ng/mL
- Cmax ([8]; human, plasma, iv, 50 mg, Cmax, 50 mg IV regimen (h 0, 2, 4, then q4h to h 44), plasma, mean): 736 ng/mL
- Tmax ([8]; human, plasma, iv, 50 mg, Tmax(0-2), 50 mg IV regimen (h 0, 2, 4, then q4h to h 44), plasma, mean): 0.54 h
- Tmax ([8]; human, plasma, iv, 50 mg, Tmax(2-4), 50 mg IV regimen (h 0, 2, 4, then q4h to h 44), plasma, mean): 2.36 h
- Tmax ([8]; human, plasma, iv, 50 mg, Tmax(44-48), 50 mg IV regimen (h 0, 2, 4, then q4h to h 44), plasma, mean): 44.3 h
- Tmax ([8]; human, plasma, iv, 50 mg, Tmax, 50 mg IV regimen (h 0, 2, 4, then q4h to h 44), plasma, mean): 30 h
- concentration at 0 h ([8]; human, plasma, iv, 50 mg, plasma concentration, Mean, 50 mg IV Dose (h 0, 2, 4, then q4h to h 44), Time 0.00 hr): 0.726 ng/mL
- concentration at 0.25 h ([8]; human, plasma, iv, 50 mg, plasma concentration, Mean, 50 mg IV Dose (h 0, 2, 4, then q4h to h 44), Time 0.250 hr): 253 ng/mL
- concentration at 0.5 h ([8]; human, plasma, iv, 50 mg, plasma concentration, Mean, 50 mg IV Dose (h 0, 2, 4, then q4h to h 44), Time 0.500 hr): 261 ng/mL
- concentration at 0.75 h ([8]; human, plasma, iv, 50 mg, plasma concentration, Mean, 50 mg IV Dose (h 0, 2, 4, then q4h to h 44), Time 0.750 hr): 243 ng/mL
- concentration at 1 h ([8]; human, plasma, iv, 50 mg, plasma concentration, Mean, 50 mg IV Dose (h 0, 2, 4, then q4h to h 44), Time 1.00 hr): 231 ng/mL
- concentration at 2 h ([8]; human, plasma, iv, 50 mg, plasma concentration, Mean, 50 mg IV Dose (h 0, 2, 4, then q4h to h 44), Time 2.00 hr): 188 ng/mL
- concentration at 2.5 h ([8]; human, plasma, iv, 50 mg, plasma concentration, Mean, 50 mg IV Dose (h 0, 2, 4, then q4h to h 44), Time 2.50 hr): 442 ng/mL
- concentration at 4 h ([8]; human, plasma, iv, 50 mg, plasma concentration, Mean, 50 mg IV Dose (h 0, 2, 4, then q4h to h 44), Time 4.00 hr): 335 ng/mL
- concentration at 4.25 h ([8]; human, plasma, iv, 50 mg, plasma concentration, Mean, 50 mg IV Dose (h 0, 2, 4, then q4h to h 44), Time 4.25 hr): 662 ng/mL
- concentration at 4.5 h ([8]; human, plasma, iv, 50 mg, plasma concentration, Mean, 50 mg IV Dose (h 0, 2, 4, then q4h to h 44), Time 4.50 hr): 592 ng/mL
- concentration at 5 h ([8]; human, plasma, iv, 50 mg, plasma concentration, Mean, 50 mg IV Dose (h 0, 2, 4, then q4h to h 44), Time 5.00 hr): 527 ng/mL
- concentration at 6 h ([8]; human, plasma, iv, 50 mg, plasma concentration, Mean, 50 mg IV Dose (h 0, 2, 4, then q4h to h 44), Time 6.00 hr): 433 ng/mL
- concentration at 8 h ([8]; human, plasma, iv, 50 mg, plasma concentration, Mean, 50 mg IV Dose (h 0, 2, 4, then q4h to h 44), Time 8.00 hr): 346 ng/mL
- concentration at 12 h ([8]; human, plasma, iv, 50 mg, plasma concentration, Mean, 50 mg IV Dose (h 0, 2, 4, then q4h to h 44), Time 12.0 hr): 353 ng/mL
- concentration at 20 h ([8]; human, plasma, iv, 50 mg, plasma concentration, Mean, 50 mg IV Dose (h 0, 2, 4, then q4h to h 44), Time 20.0 hr): 419 ng/mL
- concentration at 32 h ([8]; human, plasma, iv, 50 mg, plasma concentration, Mean, 50 mg IV Dose (h 0, 2, 4, then q4h to h 44), Time 32.0 hr): 422 ng/mL
- concentration at 40 h ([8]; human, plasma, iv, 50 mg, plasma concentration, Mean, 50 mg IV Dose (h 0, 2, 4, then q4h to h 44), Time 40.0 hr): 424 ng/mL
- concentration at 44 h ([8]; human, plasma, iv, 50 mg, plasma concentration, Mean, 50 mg IV Dose (h 0, 2, 4, then q4h to h 44), Time 44.0 hr): 424 ng/mL
- concentration at 44.3 h ([8]; human, plasma, iv, 50 mg, plasma concentration, Mean, 50 mg IV Dose (h 0, 2, 4, then q4h to h 44), Time 44.3 hr): 697 ng/mL
